A short description of series [1]: Metabolic stability in rat liver assessed as intrinsic clearance.
Series [2] is described as follows: in vitro. Particulars: rat, liver microsomes. A general note: Liver microsomes are vesicles of endoplasmic reticulum, rich in cytochrome P450 enzymes.
Description: Metabolic stability in rat liver microsomes assessed as parent compound remaining measured after 30 min
Series [3] in a line: in vitro. Conditions: rat, liver microsomes. The source holds these as a separate data set.
Description: Metabolic stability in rat liver microsomes assessed as parent compound remaining measured after 5 min
Series [4] in a line: in vitro. Particulars: rat, liver microsomes. The source holds these as a separate data set.
Description: Metabolic stability in rat liver microsomes assessed as parent compound remaining measured after 15 min
A short description of series [5]: in vitro. Conditions: rat, liver microsomes. This is another data set of the same source.
Description: Metabolic stability in rat liver microsomes assessed as parent compound remaining measured after 60 min
The next series relates to KYSE-150 cell line. Nature of the series: Antiproliferative activity against human KYSE-150 cell line assessed as inhibition of cell proliferation incubated for 48 hrs by MTT assay. It counts as functional, cell-based. Particulars: KYSE-150, 48 h. (In general: Tetrazolium dyes change colour on reduction, which living cells bring about.)
The test system of a further series is MGC-803. The experiment in a line: cells. Conditions: Homo sapiens, MGC-803, 48 h.
The next series concerns HCT-116. Nature of the series: cells. Conditions: Homo sapiens, HCT-116, 48 h.
Another series concerns KYSE-450. Nature of the series: cells. Conditions: Homo sapiens, KYSE-450, 48 h.
In the next series the test system is KYSE-30. The experiment in a line: cells. Conditions: Homo sapiens, KYSE-30, 48 h.
The subject of the next series is ECa-109 cell line. Nature of the series: cells. Particulars: Homo sapiens, ECa-109, 48 h.
Another series relates to NCI-N87. The experiment in a line: cells. Conditions: Homo sapiens, NCI-N87, 48 h.
Another series concerns NCI-H1975. Nature of the series: cells. Particulars: Homo sapiens, NCI-H1975, 48 h.
A further series concerns MDA-MB-231. Nature of the series: cells. Particulars: Homo sapiens, MDA-MB-231, 48 h.
A further series deals with DU-145. Nature of the series: cells. Conditions: Homo sapiens, DU-145, 48 h.
A further series deals with Huh-7. The experiment in a line: cells. Conditions: Homo sapiens, Huh-7, 48 h.

Description for DU-145: Antiproliferative activity against human DU-145 cells assessed as inhibition of cell proliferation incubated for 48 hrs by MTT assay
Description for ECa-109 cell line: Antiproliferative activity against human EC109 cells assessed as inhibition of cell proliferation incubated for 48 hrs by MTT assay
Description for HCT-116: Antiproliferative activity against human HCT-116 cells assessed as inhibition of cell proliferation incubated for 48 hrs by MTT assay
Description for Huh-7: Antiproliferative activity against human Huh-7 cells assessed as inhibition of cell proliferation incubated for 48 hrs by MTT assay
Description for KYSE-30: Antiproliferative activity against human KYSE-30 cells assessed as inhibition of cell proliferation incubated for 48 hrs by MTT assay
Description for KYSE-450: Antiproliferative activity against human KYSE-450 cells assessed as inhibition of cell proliferation incubated for 48 hrs by MTT assay
Description for MDA-MB-231: Antiproliferative activity against human MDA-MB-231 cells assessed as inhibition of cell proliferation incubated for 48 hrs by MTT assay
Description for MGC-803: Antiproliferative activity against human MGC-803 cells assessed as inhibition of cell proliferation incubated for 48 hrs by MTT assay
Description for NCI-H1975: Antiproliferative activity against human NCI-H1975 cells assessed as inhibition of cell proliferation incubated for 48 hrs by MTT assay
Description for NCI-N87: Antiproliferative activity against human NCI-N87 cells assessed as inhibition of cell proliferation incubated for 48 hrs by MTT assay

For the compound `O=C(O)Cc1ccccc1Nc1c(Cl)cccc1Cl` [DICLOFENAC], in series [1], the CLint scaled (usually the rate of metabolic loss divided by the concentration) was 127 mL/min/kg. In “in vitro [2]”, the share remaining – broadly, what is left of the initial amount, in per cent – at 0.5 h is 33.8%. The fraction remaining at 5 min in “in vitro [3]” came to 77.9%. The same compound came in with a fraction remaining at 0.25 h in “in vitro [4]” of 55.7%. The fraction remaining at 1 h in the series “in vitro [5]” is 11.5%.

Turning to `CNC(=O)c1ccccc1Nc1nc(Nc2ccc(N3CCOCC3)cc2OC)ncc1Cl`, the IC50 (in general, the concentration that gives 50% inhibition) came out at 1820 nM in the series with KYSE-150 cell line; 1280 nM with MGC-803; 1520 nM with HCT-116; 3440 nM in the series with KYSE-450; 1030 nM in the series on KYSE-30; 3270 nM in the series on ECa-109 cell line. In addition, the IC50 was found to be 2120 nM in the series on NCI-N87; 1820 nM with NCI-H1975; 2120 nM with MDA-MB-231; 720 nM in the series on DU-145; 510 nM in the series on Huh-7.

Source of the values: ChEMBL document CHEMBL6114984, “Discovery of 2,4-diaminopyrimidine derivatives as potent inhibitors of FAK capable of activating the Hippo pathway for the treatment of esophageal squamous cell carcinoma” (Eur J Med Chem, 2025).
